test system: Rhizoctonia solani; test: Effect on Rice sheath blight (preventive spray test); settings: conc. of active ingredient 20 ppm, 10 days after inoculation
Protocol: An emulsion of a compound of the present invention prepared in Preparation Example 2 was diluted with water and uniformly sprayed on 5 rice plant seedlings (variety: Koshihikari) in 4.5-leaf stage in each plastic pot having a diameter of 6 cm, with a spray gun. One day after the spraying, the seedlings were bundled at the second sheath with a string. Colonies of Rhizoctonia solani previously cultured in PSA culture medium were bored with a cork borer to obtain pieces having a diameter of 4 mm. The piece was put in the bundle, and kept in a high-humidity room at 25° C. until the examination. Ten days after the inoculation, the degree of the disease was examined, and the preventive rate (effect of inhibiting the disease) was calculated on the basis of the following standard:
Preventive rate=[1-D′/C′]×100
C′: Severity in untreated section
D′: Severity in treated section.

SMILES	Preventive rate (%)
CCc1c(OCc2ccccc2C(=NOC)C(=O)NC)ccc2c1OCCC2=NOC [c-30]	56
CNC(=O)C(=NOC)c1ccccc1COc1ccc2c(c1C)OCCC2=NOCc1c(F)c(F)c(F)c(F)c1F [c-83]	79

same assay, conditions: conc. of active ingredient 100 ppm, 10 days after inoculation

SMILES	Preventive rate (%)
CCc1c(OCc2ccccc2C(=NOC)C(=O)NC)ccc2c1OCCC2=NOC [c-30]	98
CNC(=O)C(=NOC)c1ccccc1COc1ccc2c(c1C)OCCC2=NOCc1c(F)c(F)c(F)c(F)c1F [c-83]	81

test system: Puccinia recondita; test: Effect on Wheat brown rust (preventive spray test); format: in vivo; settings: conc. of active ingredient 4 ppm, 7 days after inoculation

SMILES	Preventive rate (%)
COC=C(C(=O)OC)c1ccccc1COc1ccc2c(c1C)C(C)CC2=NOC (racemic) [f-5]	100
COC=C(C(=O)OC)c1ccccc1COc1ccc2c(c1)OCC2=NOC [a-2]	98
CON=C1COc2c1ccc(OCc1ccccc1/C(=N\OC)C(=O)OC)c2C [a-15]	96
CCc1c(OCc2ccccc2C(=NOC)C(=O)NC)ccc2c1OCCC2=NOC [c-30]	100
CNC(=O)C(=NOC)c1ccccc1COc1ccc2c(c1C)OCCC2=NOCc1c(F)c(F)c(F)c(F)c1F [c-83]	95

same assay, conditions: conc. of active ingredient 20 ppm, 7 days after inoculation

SMILES	Preventive rate (%)
COC=C(C(=O)OC)c1ccccc1COc1ccc2c(c1C)C(C)CC2=NOC (racemic) [f-5]	100
COC=C(C(=O)OC)c1ccccc1COc1ccc2c(c1)OCC2=NOC [a-2]	100
CON=C1COc2c1ccc(OCc1ccccc1/C(=N\OC)C(=O)OC)c2C [a-15]	96
CCc1c(OCc2ccccc2C(=NOC)C(=O)NC)ccc2c1OCCC2=NOC [c-30]	100
CNC(=O)C(=NOC)c1ccccc1COc1ccc2c(c1C)OCCC2=NOCc1c(F)c(F)c(F)c(F)c1F [c-83]	100

same assay, conditions: conc. of active ingredient 100 ppm, 7 days after inoculation

SMILES	Preventive rate (%)
COC=C(C(=O)OC)c1ccccc1COc1ccc2c(c1C)C(C)CC2=NOC (racemic) [f-5]	100
COC=C(C(=O)OC)c1ccccc1COc1ccc2c(c1)OCC2=NOC [a-2]	100
CON=C1COc2c1ccc(OCc1ccccc1/C(=N\OC)C(=O)OC)c2C [a-15]	100
CCc1c(OCc2ccccc2C(=NOC)C(=O)NC)ccc2c1OCCC2=NOC [c-30]	100
CNC(=O)C(=NOC)c1ccccc1COc1ccc2c(c1C)OCCC2=NOCc1c(F)c(F)c(F)c(F)c1F [c-83]	100

test system: Pyricularia oryzae; test: not given; format: in vivo; settings: Rice blast; conc. of active ingredient 4 ppm; 7 days after inoculation

SMILES	Preventive rate (%)
COC=C(C(=O)OC)c1ccccc1COc1ccc2c(c1C)C(C)CC2=NOC (racemic) [f-5]	72

same assay, conditions: Rice blast; conc. of active ingredient 20 ppm; 7 days after inoculation

SMILES	Preventive rate (%)
COC=C(C(=O)OC)c1ccccc1COc1ccc2c(c1C)C(C)CC2=NOC (racemic) [f-5]	89
COC=C(C(=O)OC)c1ccccc1COc1ccc2c(c1)OCC2=NOC [a-2]	95
CCc1c(OCc2ccccc2C(=NOC)C(=O)NC)ccc2c1OCCC2=NOC [c-30]	100

same assay, conditions: Rice blast; conc. of active ingredient 100 ppm; 7 days after inoculation

SMILES	Preventive rate (%)
COC=C(C(=O)OC)c1ccccc1COc1ccc2c(c1C)C(C)CC2=NOC (racemic) [f-5]	94
COC=C(C(=O)OC)c1ccccc1COc1ccc2c(c1)OCC2=NOC [a-2]	97
CCc1c(OCc2ccccc2C(=NOC)C(=O)NC)ccc2c1OCCC2=NOC [c-30]	100

test system: Psecidoperonospora cubensis; test: Effect on Cucumber downy mildew (preventive spray test); format: in vivo; settings: conc. of active ingredient 4 ppm, 7 days after inoculation

SMILES	Preventive rate (%)
COC=C(C(=O)OC)c1ccccc1COc1ccc2c(c1C)C(C)CC2=NOC (racemic) [f-5]	99

same assay, conditions: conc. of active ingredient 20 ppm, 7 days after inoculation

SMILES	Preventive rate (%)
COC=C(C(=O)OC)c1ccccc1COc1ccc2c(c1C)C(C)CC2=NOC (racemic) [f-5]	100
COC=C(C(=O)OC)c1ccccc1COc1ccc2c(c1)OCC2=NOC [a-2]	100

same assay, conditions: conc. of active ingredient 100 ppm, 7 days after inoculation

SMILES	Preventive rate (%)
COC=C(C(=O)OC)c1ccccc1COc1ccc2c(c1C)C(C)CC2=NOC (racemic) [f-5]	100
COC=C(C(=O)OC)c1ccccc1COc1ccc2c(c1)OCC2=NOC [a-2]	100

test system: Botrytis cinerea; test: Effect on Cucumber gray mold (cotyledon paper disc test); format: in vivo; settings: conc. of active ingredient 20 ppm, 3 days after inoculation

SMILES	Preventive rate (%)
CON=C1COc2c1ccc(OCc1ccccc1/C(=N\OC)C(=O)OC)c2C [a-15]	73

same assay, conditions: conc. of active ingredient 100 ppm, 3 days after inoculation

SMILES	Preventive rate (%)
CON=C1COc2c1ccc(OCc1ccccc1/C(=N\OC)C(=O)OC)c2C [a-15]	96

test system: Erysiphe graminis; test: Effects on Barley powdery mildew (preventive spray test); format: in vivo; settings: conc. of active ingredient 4 ppm, lesions counted seven days after inoculation

SMILES	Preventive rate (%)
COC=C(C(=O)OC)c1ccccc1COc1ccc2c(c1C)C(C)CC2=NOC (racemic) [f-5]	97
CCc1c(OCc2ccccc2C(=NOC)C(=O)NC)ccc2c1OCCC2=NOC [c-30]	95

same assay, conditions: conc. of active ingredient 20 ppm, lesions counted seven days after inoculation

SMILES	Preventive rate (%)
COC=C(C(=O)OC)c1ccccc1COc1ccc2c(c1C)C(C)CC2=NOC (racemic) [f-5]	100
COC=C(C(=O)OC)c1ccccc1COc1ccc2c(c1)OCC2=NOC [a-2]	79
CCc1c(OCc2ccccc2C(=NOC)C(=O)NC)ccc2c1OCCC2=NOC [c-30]	100
CNC(=O)C(=NOC)c1ccccc1COc1ccc2c(c1C)OCCC2=NOCc1c(F)c(F)c(F)c(F)c1F [c-83]	96

same assay, conditions: conc. of active ingredient 100 ppm, lesions counted seven days after inoculation

SMILES	Preventive rate (%)
COC=C(C(=O)OC)c1ccccc1COc1ccc2c(c1C)C(C)CC2=NOC (racemic) [f-5]	100
COC=C(C(=O)OC)c1ccccc1COc1ccc2c(c1)OCC2=NOC [a-2]	100
CCc1c(OCc2ccccc2C(=NOC)C(=O)NC)ccc2c1OCCC2=NOC [c-30]	100
CNC(=O)C(=NOC)c1ccccc1COc1ccc2c(c1C)OCCC2=NOCc1c(F)c(F)c(F)c(F)c1F [c-83]	100

test system: Chochliobolus miyabeanus; test: Effect on Rice brown spot (preventive spray test); format: in vivo; settings: conc. of active ingredient 4 ppm, 7 days after inoculation

SMILES	Preventive rate (%)
COC=C(C(=O)OC)c1ccccc1COc1ccc2c(c1C)C(C)CC2=NOC (racemic) [f-5]	53

same assay, conditions: conc. of active ingredient 20 ppm, 7 days after inoculation

SMILES	Preventive rate (%)
COC=C(C(=O)OC)c1ccccc1COc1ccc2c(c1C)C(C)CC2=NOC (racemic) [f-5]	94
COC=C(C(=O)OC)c1ccccc1COc1ccc2c(c1)OCC2=NOC [a-2]	93

same assay, conditions: conc. of active ingredient 100 ppm, 7 days after inoculation

SMILES	Preventive rate (%)
COC=C(C(=O)OC)c1ccccc1COc1ccc2c(c1C)C(C)CC2=NOC (racemic) [f-5]	98
COC=C(C(=O)OC)c1ccccc1COc1ccc2c(c1)OCC2=NOC [a-2]	96

test system: Phytophthora infestans; test: not given; format: in vivo; settings: Tomato late blight; conc. of active ingredient 4 ppm; 5 days after inoculation

SMILES	Preventive rate (%)
COC=C(C(=O)OC)c1ccccc1COc1ccc2c(c1C)C(C)CC2=NOC (racemic) [f-5]	92
COC=C(C(=O)OC)c1ccccc1COc1ccc2c(c1)OCC2=NOC [a-2]	97

same assay, conditions: Tomato late blight; conc. of active ingredient 20 ppm; 5 days after inoculation

SMILES	Preventive rate (%)
COC=C(C(=O)OC)c1ccccc1COc1ccc2c(c1C)C(C)CC2=NOC (racemic) [f-5]	100
COC=C(C(=O)OC)c1ccccc1COc1ccc2c(c1)OCC2=NOC [a-2]	97
CON=C1COc2c1ccc(OCc1ccccc1/C(=N\OC)C(=O)OC)c2C [a-15]	81

same assay, conditions: Tomato late blight; conc. of active ingredient 100 ppm; 5 days after inoculation

SMILES	Preventive rate (%)
COC=C(C(=O)OC)c1ccccc1COc1ccc2c(c1C)C(C)CC2=NOC (racemic) [f-5]	100
COC=C(C(=O)OC)c1ccccc1COc1ccc2c(c1)OCC2=NOC [a-2]	100
CON=C1COc2c1ccc(OCc1ccccc1/C(=N\OC)C(=O)OC)c2C [a-15]	94

Source: patent US6399542B1, “Alkoxyimino-substituted bicyclic compounds compositions containing the same and method of making such compounds” (Agro-Kanesho Co., Ltd., priority 1997, dated 2002)
